{
  "source": "patent US20150198612A1",
  "about": "“Isotopic Labelling of Proteins” (UNIVERSITY OF DUNDEE, priority 2012, published 2015)",
  "key": {"Cyp3a": {"tested_on": "Cyp3a", "conditions": "mouse, in vivo, ip"}, "drug metabolism enzymes": {"tested_on": "drug metabolism enzymes", "conditions": "mouse, in vivo"}, "[1]": {"tested_on": "drug metabolism related proteins", "assay": "LC-MS/MS protein expression profile of liver from induced mice (Example 1)", "type": "in vivo", "conditions": "wild type mice liver; once daily i.p. for 3 days; TCPOBOP 1 mg/kg; versus corn oil; FIG. 3", "description": "In order to generate a drug metabolism-enhanced SILAC model, the protein expression profiles of liver from animals induced with TCPOBOP (1 mg/kg) or pregnenolone 16α-carbonitrile (PCN) or vehicle were examined. […] Animals were sacrificed 3 days after dosing, liver tissue excised and snap-frozen in liquid nitrogen for storage at −80° C.\nFrozen liver tissue was thawed by addition of 10 volumes SDT lysis buffer (4% SDS, 0.1M DTT, 100 mM Tris-HCl pH 7.6) then homogenised by rotor-stator (2×5 sec at 20 k revolutions). Homogenate was heated to 95° C. for 5 minutes, sonicated (2×5 sec), then centrifuged at 16,000×g for 10 minutes. Supernatant (protein sample for analysis) was removed, aliquoted and stored at −80° C. until use. Protein samples (total of 30 μg/well) were electrophoresed through a 12% bis-tris gel in MOPS running buffer supplemented with antioxidant (all Life Technologies, Paisley, UK) alongside a Spectra multicolour broad range protein ladder (Thermo Fisher Scientific, Waltham, Mass.). Gels were stained with coomassie blue, destained, and then rehydrated with Milli-Q water. […] Peptide sample concentration was determined by Nanodrop (Thermo Fisher Scientific) and adjusted to 0.2 mg/mL in water containing 0.1% (vol/vol) trifluoroacetic acid. […] Data were analysed using SIEVE software in conjunction with Mascot database search engine. […]"}, "Cyp2B10": {"tested_on": "Cyp2B10", "assay": "SILAM LC-MS/MS quantification of Cyp2B10 in mouse liver (Example 2)", "conditions": "for L/H ratio of Cyp2B10 peptide NLQELLDYIGHSVEK: mice treated 1 mg/kg", "description": "This experiment was conducted to test the utility of the drug metabolism-enhanced reference in an actual SILAM protocol in comparison to normal SILAM protocol.\nLiver protein extracts from wild type mice treated with TCPOBOP (1 mg/kg) or Ethoxyquin (1 mg/kg) or corn oil (control) were spiked with liver heavy protein extract from normal SILAM mice or drug metabolism pathway-enhanced SILAM mice according to the present invention."}, "Cyp4a": {"tested_on": "Cyp4a", "assay": "Western blot of liver drug metabolism enzymes, Cyp4a", "conditions": "C57BL/6 mice liver, once daily i.p. for 3 days, single inducer"}, "[2]": {"tested_on": "inflammation related proteins", "assay": "LC-MS/MS of lung proteins after LPS treatment (Example 3)", "type": "in vivo", "conditions": "male C57BL/6 mice, single i.p. injection 100 μg, lung 24 hours after dosing", "description": "Male C57BL/6 mice were given a single intraperitoneal injection of lipopolysaccharide (LPS; 100 μg) or vehicle and tissues were harvested 24 hours after dosing. Lung tissues were lysed in 2% SDS buffer by ultrasonic probe and proteins extracted were resolved onto a SDS-PAGE, followed by a filter assisted trypsin digestion procedure. The protein digests were analysed by LC-MS/MS and the data were analysed using Peaks software for database search and Progenesis for quantification."}},
  "data": [
    {"compound": "CC(=O)[C@H]1[C@H](C#N)C[C@H]2[C@@H]3CC=C4C[C@@H](O)CC[C@]4(C)[C@H]3CC[C@@]21C", "note": "[PCN, pregnenolone 16α-carbonitrile]", "values": [
      {"measurement": "Cyp3a protein expression", "setting": "Cyp3a", "result": "noticeable"},
      {"measurement": "change to other Cyp proteins examined (other than Cyp3a)", "setting": "drug metabolism enzymes; ip", "result": "no change"},
      {"measurement": "expression of drug metabolism related proteins relative to the total ion current", "setting": "[1]", "result": "to a lesser extent, PCN, significantly increased the expression of many of these proteins"}
    ]},
    {"compound": "Clc1cnc(Oc2ccc(Oc3ncc(Cl)cc3Cl)cc2)c(Cl)c1", "note": "[TCPOBOP]", "values": [
      {"measurement": "Cyp2B10 expression relative to Ethoxyquin", "setting": "Cyp2B10; from L/H ratios, pathway-enhanced SILAM", "result": 4, "unit": "fold"},
      {"measurement": "levels of the low-abundance cytochrome protein Cyp2B10", "setting": "Cyp2B10; general statement", "result": "efficiently increase levels"},
      {"measurement": "L/H ratio of Cyp2B10 peptide NLQELLDYIGHSVEK", "setting": "Cyp2B10; liver extract spiked with drug metabolism pathway-enhanced SILAM heavy liver extract, control L/H=0", "result": 2.50},
      {"measurement": "L/H ratio of Cyp2B10 peptide NLQELLDYIGHSVEK", "setting": "Cyp2B10; liver extract spiked with normal SILAM heavy extract (no heavy peptide signal)", "result": "infinite"},
      {"measurement": "expression of proteins examined", "setting": "drug metabolism enzymes", "result": "enhanced significantly the expression of many proteins examined except for Cyp2e and Homx1"},
      {"measurement": "expression of drug metabolism related proteins relative to the total ion current", "setting": "[1]", "result": "significantly increased the expression of many of these proteins"},
      {"measurement": "Cyp4a expression", "setting": "Cyp4a", "result": "moderate"}
    ]},
    {"compound": "lipopolysaccharide [LPS]", "values": [
      {"measurement": "number of inflammation related proteins in the lung that can be quantified using the enhanced SILAM", "setting": "[2]", "result": "more than 100"},
      {"measurement": "induction of the lung proteins listed in Table 4", "setting": "[2]; versus vehicle", "result": "more than 5 times"}
    ]}
  ]
}
